target: Kappa-type opioid receptor (Homo sapiens, UniProt P41145); assay: Agonistic activity of the kappa-opioid receptors: Forskolin can stimulate the release of cAMP from HEK293 cells with high expression of human κ (or μ, or δ)-opioid receptors. […] The efficacy of the compounds of the invention as κ-opioid receptor agonists was determined by measuring the ability of the compounds of Examples to inhibit adenylate cyclase activity.Cell culture: The HEK293 cell line highly expressing human κ (or μ, or δ)-opioid receptor were cultured in DMEM medium containing 10% FBS.Stimulation: the test compound was 4-fold diluted in a gradient manner to obtain 10 concentrations, and 50 nl of each was transferred to a 384-well plate, and then 10 nl Forskolin was added; the cells were digested, re-suspended, and counted; and then 10 μl of cell suspension (5×10^5 cell/mL) was added, and the cells were mixed gently, and incubated at 23° C. for 60 minutes.Detection: cAMP Assay Kit (Cisbio) was used, cAMPD2 and Anti-cAMP conjugate were added, and the resultant mixture was incubated for 1 h at room temperature. The plate was read using envision (Perkin Elmer) and EC50 was obtained by means of fitting with a four-parameter equation.; format: cell-based
Sequence (P41145 whole entry): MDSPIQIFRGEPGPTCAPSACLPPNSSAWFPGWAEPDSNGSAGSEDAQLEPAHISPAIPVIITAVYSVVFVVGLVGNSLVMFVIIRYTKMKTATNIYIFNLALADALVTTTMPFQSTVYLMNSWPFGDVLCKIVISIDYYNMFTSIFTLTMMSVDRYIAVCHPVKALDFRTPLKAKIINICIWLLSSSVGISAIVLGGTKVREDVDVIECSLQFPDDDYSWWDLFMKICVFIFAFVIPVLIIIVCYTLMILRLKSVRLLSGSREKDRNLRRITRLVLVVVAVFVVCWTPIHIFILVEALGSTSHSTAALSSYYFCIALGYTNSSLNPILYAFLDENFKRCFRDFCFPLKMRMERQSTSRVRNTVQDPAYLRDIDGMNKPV

SMILES | EC50 [pM]
CC(C)C[C@@H](NC(=O)[C@@H](Cc1ccccc1)NC(=O)[C@H](N)Cc1ccccc1)C(=O)N[C@H](CCCCN)C(=O)N1CCC[C@H]1B(O)O | 1

target: T1, Cytochrome P450 1A2 (Homo sapiens, UniProt P05177); assay: (§1) Inhibition of Cytochrome P450 Oxidase: The human liver microsomes (0.253 mg/mL protein) containing cytochrome P450, test compounds (0.05-50 μM), CYPs substrates (10 μM […], 5 μM diclofenac, 30 μM mephenytoin, 5 μM dextromethorphan hydrobromide, 2 μM midazolam), 1.0 mM NADP were incubated at 37° C. for 10 minutes. Naflavone, sulfafenpyrazole, N-3-benzylnivan, quinidine, and ketoconazole were used as reference inhibitors.
T1 sequence (P05177 whole entry): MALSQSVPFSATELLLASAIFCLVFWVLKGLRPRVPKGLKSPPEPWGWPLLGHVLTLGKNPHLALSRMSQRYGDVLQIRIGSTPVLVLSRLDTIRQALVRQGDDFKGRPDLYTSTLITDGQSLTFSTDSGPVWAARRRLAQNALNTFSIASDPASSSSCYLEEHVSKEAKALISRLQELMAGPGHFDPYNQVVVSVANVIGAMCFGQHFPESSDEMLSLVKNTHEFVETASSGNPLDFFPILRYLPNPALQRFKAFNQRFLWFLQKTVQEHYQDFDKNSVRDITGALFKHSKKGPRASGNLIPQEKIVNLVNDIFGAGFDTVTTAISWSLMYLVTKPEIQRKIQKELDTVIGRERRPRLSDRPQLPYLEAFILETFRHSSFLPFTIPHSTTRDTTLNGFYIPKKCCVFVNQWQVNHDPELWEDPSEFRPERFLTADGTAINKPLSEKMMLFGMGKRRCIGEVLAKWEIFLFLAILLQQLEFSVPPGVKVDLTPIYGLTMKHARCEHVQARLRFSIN

SMILES | IC50 [µM]
CC(C)C[C@@H](NC(=O)[C@@H](Cc1ccccc1)NC(=O)[C@H](N)Cc1ccccc1)C(=O)N[C@H](CCCCN)C(=O)N1CCC[C@H]1B(O)O | > 50
CC(C)C[C@@H](NC(=O)[C@@H](Cc1ccccc1)NC(=O)[C@H](N)Cc1ccccc1)C(=O)N[C@H](CCCCN)C(=O)N1CCC(N)(B(O)O)CC1 | > 50
CC(C)C[C@@H](NC(=O)[C@@H](Cc1ccccc1)NC(=O)[C@H](N)Cc1ccccc1)C(=O)N[C@H](CCCCN)C(=O)N1CC=C(B(O)O)C1 | > 50
CC(C)C[C@@H](NC(=O)[C@@H](Cc1ccccc1)NC(=O)[C@H](N)Cc1ccccc1)C(=O)N[C@H](CCCCN)C(=O)N1CC[C@@H](B(O)O)C1 | > 50

target: Cytochrome P450 2C19 (Homo sapiens, UniProt P33261); assay: as §1
Sequence (P33261 whole entry): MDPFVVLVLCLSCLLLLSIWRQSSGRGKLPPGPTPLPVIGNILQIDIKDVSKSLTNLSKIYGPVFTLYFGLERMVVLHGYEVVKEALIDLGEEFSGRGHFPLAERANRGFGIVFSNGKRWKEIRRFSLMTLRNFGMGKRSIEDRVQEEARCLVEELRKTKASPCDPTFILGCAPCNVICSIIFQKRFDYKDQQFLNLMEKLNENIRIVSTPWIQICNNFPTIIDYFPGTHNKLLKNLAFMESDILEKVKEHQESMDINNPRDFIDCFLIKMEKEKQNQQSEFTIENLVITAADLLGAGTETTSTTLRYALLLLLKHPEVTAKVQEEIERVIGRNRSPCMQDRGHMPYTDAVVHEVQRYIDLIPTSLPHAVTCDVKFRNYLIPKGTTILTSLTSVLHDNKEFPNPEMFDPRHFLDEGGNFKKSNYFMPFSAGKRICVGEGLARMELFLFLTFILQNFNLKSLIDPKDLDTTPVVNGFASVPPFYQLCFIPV

SMILES | IC50 [µM]
CC(C)C[C@@H](NC(=O)[C@@H](Cc1ccccc1)NC(=O)[C@H](N)Cc1ccccc1)C(=O)N[C@H](CCCCN)C(=O)N1CCC[C@H]1B(O)O | > 50
CC(C)C[C@@H](NC(=O)[C@@H](Cc1ccccc1)NC(=O)[C@H](N)Cc1ccccc1)C(=O)N[C@H](CCCCN)C(=O)N1CCC(N)(B(O)O)CC1 | > 50
CC(C)C[C@@H](NC(=O)[C@@H](Cc1ccccc1)NC(=O)[C@H](N)Cc1ccccc1)C(=O)N[C@H](CCCCN)C(=O)N1CC=C(B(O)O)C1 | > 50
CC(C)C[C@@H](NC(=O)[C@@H](Cc1ccccc1)NC(=O)[C@H](N)Cc1ccccc1)C(=O)N[C@H](CCCCN)C(=O)N1CC[C@@H](B(O)O)C1 | > 50

target: Cytochrome P450 2C9 (Homo sapiens, UniProt P11712); assay: as §1
Sequence (P11712 whole entry): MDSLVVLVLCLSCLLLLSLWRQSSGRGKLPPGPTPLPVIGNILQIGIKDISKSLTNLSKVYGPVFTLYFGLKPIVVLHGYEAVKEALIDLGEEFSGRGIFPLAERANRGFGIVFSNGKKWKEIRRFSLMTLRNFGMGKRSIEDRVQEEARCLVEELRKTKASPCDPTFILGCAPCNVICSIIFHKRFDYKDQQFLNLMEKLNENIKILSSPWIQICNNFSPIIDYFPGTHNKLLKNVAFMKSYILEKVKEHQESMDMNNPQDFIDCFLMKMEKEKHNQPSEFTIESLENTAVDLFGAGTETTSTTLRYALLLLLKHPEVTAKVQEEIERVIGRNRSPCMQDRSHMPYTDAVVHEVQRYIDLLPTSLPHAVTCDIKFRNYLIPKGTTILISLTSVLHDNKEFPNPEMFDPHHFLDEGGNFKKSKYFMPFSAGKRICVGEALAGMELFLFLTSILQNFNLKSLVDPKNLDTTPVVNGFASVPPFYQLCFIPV

SMILES | IC50 [µM]
CC(C)C[C@@H](NC(=O)[C@@H](Cc1ccccc1)NC(=O)[C@H](N)Cc1ccccc1)C(=O)N[C@H](CCCCN)C(=O)N1CCC[C@H]1B(O)O | > 50
CC(C)C[C@@H](NC(=O)[C@@H](Cc1ccccc1)NC(=O)[C@H](N)Cc1ccccc1)C(=O)N[C@H](CCCCN)C(=O)N1CCC(N)(B(O)O)CC1 | > 50
CC(C)C[C@@H](NC(=O)[C@@H](Cc1ccccc1)NC(=O)[C@H](N)Cc1ccccc1)C(=O)N[C@H](CCCCN)C(=O)N1CC=C(B(O)O)C1 | > 50
CC(C)C[C@@H](NC(=O)[C@@H](Cc1ccccc1)NC(=O)[C@H](N)Cc1ccccc1)C(=O)N[C@H](CCCCN)C(=O)N1CC[C@@H](B(O)O)C1 | > 50

target: Cytochrome P450 2D6 (Homo sapiens, UniProt P10635); assay: as §1
Sequence (P10635 whole entry): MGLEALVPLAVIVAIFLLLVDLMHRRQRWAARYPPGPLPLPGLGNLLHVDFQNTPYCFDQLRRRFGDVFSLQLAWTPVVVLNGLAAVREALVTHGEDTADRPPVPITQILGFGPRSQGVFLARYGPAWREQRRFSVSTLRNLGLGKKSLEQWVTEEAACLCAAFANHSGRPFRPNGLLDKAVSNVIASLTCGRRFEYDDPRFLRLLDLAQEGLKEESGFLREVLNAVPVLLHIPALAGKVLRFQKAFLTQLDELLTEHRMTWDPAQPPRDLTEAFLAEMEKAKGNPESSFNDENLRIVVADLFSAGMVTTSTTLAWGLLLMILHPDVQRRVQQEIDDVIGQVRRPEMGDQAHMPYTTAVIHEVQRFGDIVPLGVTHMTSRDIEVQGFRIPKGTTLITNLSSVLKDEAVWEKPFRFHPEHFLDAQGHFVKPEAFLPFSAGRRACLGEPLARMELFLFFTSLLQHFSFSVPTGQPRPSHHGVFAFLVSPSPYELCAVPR

SMILES | IC50 [µM]
CC(C)C[C@@H](NC(=O)[C@@H](Cc1ccccc1)NC(=O)[C@H](N)Cc1ccccc1)C(=O)N[C@H](CCCCN)C(=O)N1CCC[C@H]1B(O)O | > 50
CC(C)C[C@@H](NC(=O)[C@@H](Cc1ccccc1)NC(=O)[C@H](N)Cc1ccccc1)C(=O)N[C@H](CCCCN)C(=O)N1CCC(N)(B(O)O)CC1 | > 50
CC(C)C[C@@H](NC(=O)[C@@H](Cc1ccccc1)NC(=O)[C@H](N)Cc1ccccc1)C(=O)N[C@H](CCCCN)C(=O)N1CC=C(B(O)O)C1 | > 50
CC(C)C[C@@H](NC(=O)[C@@H](Cc1ccccc1)NC(=O)[C@H](N)Cc1ccccc1)C(=O)N[C@H](CCCCN)C(=O)N1CC[C@@H](B(O)O)C1 | > 50

target: Cytochrome P450 3A4 (Homo sapiens, UniProt P08684); assay: as §1
Sequence (P08684 whole entry): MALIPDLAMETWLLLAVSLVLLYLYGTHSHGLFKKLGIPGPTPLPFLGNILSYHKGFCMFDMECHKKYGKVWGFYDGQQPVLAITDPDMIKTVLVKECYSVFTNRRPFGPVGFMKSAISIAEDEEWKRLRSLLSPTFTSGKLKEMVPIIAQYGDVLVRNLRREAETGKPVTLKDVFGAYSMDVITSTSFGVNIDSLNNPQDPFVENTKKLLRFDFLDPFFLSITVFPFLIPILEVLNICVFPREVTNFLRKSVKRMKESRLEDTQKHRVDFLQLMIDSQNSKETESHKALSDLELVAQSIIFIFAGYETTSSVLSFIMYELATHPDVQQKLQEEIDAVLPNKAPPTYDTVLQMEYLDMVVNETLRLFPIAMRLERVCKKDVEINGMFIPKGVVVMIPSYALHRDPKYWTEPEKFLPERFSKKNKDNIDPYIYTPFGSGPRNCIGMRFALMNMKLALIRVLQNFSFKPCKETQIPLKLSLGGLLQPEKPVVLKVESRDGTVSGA

SMILES | IC50 [µM]
CC(C)C[C@@H](NC(=O)[C@@H](Cc1ccccc1)NC(=O)[C@H](N)Cc1ccccc1)C(=O)N[C@H](CCCCN)C(=O)N1CCC[C@H]1B(O)O | > 50
CC(C)C[C@@H](NC(=O)[C@@H](Cc1ccccc1)NC(=O)[C@H](N)Cc1ccccc1)C(=O)N[C@H](CCCCN)C(=O)N1CCC(N)(B(O)O)CC1 | > 50
CC(C)C[C@@H](NC(=O)[C@@H](Cc1ccccc1)NC(=O)[C@H](N)Cc1ccccc1)C(=O)N[C@H](CCCCN)C(=O)N1CC=C(B(O)O)C1 | > 50
CC(C)C[C@@H](NC(=O)[C@@H](Cc1ccccc1)NC(=O)[C@H](N)Cc1ccccc1)C(=O)N[C@H](CCCCN)C(=O)N1CC[C@@H](B(O)O)C1 | > 50
